Experimental data from patent US8518928B2, “Therapeutic compounds” (Rutgers, The State University of New Jersey, priority 2006, dated 2013).
Counter-ions that a name gives are not always drawn.

Legend:
WAC2 = details: human neuroblastoma cell line WAC2; read-out: cytotoxicity IC50; cited from earlier work
MiaPaCa = details: human pancreatic carcinoma MiaPaCa; read-out: cytotoxicity IC50; cited from earlier work
LAN5 = details: human neuroblastoma cell line LAN5; read-out: cytotoxicity IC50; cited from earlier work
SK-N-AS = details: human neuroblastoma cell line SK-N-AS; read-out: cytotoxicity IC50; cited from earlier work
LAN1 = details: human neuroblastoma cell line LAN1; read-out: cytotoxicity IC50; cited from earlier work
[1] = tested on: bone marrow CD34-positive cells; details: cited from earlier work

`CC(C)C1NC(=O)c2coc(n2)-c2coc(n2)-c2coc(n2)C(CCCCN)NC(=O)c2coc(n2)-c2coc(n2)-c2coc1n2` (stereo not shown) (as salt: TFA) [Compound 15, Cyclic Lysine-Valine Amine TFA Salt] showed a melting point of 297 to 300 °C.

For `Cc1oc2nc1-c1nc(co1)-c1nc(co1)-c1nc(co1)-c1nc(co1)-c1nc(co1)C1=NC(CS1)c1nc-2c(C)o1` (stereo not shown) [Telomestatin], the IC50 (WAC2) is listed as 3.2 µM, the IC50 (MiaPaCa) is listed as 0.5 µM and the IC50 (LAN5) is listed as 2.5 µM. For the same molecule, the IC50 (SK-N-AS) was 0.8 µM, the IC50 (LAN1) was 4 µM and the “effect on BFU-E and CFU-GM” value [1] was “much lesser effect”.
